Assay results as given in patent US9669112B2, “Animal model of neuronal injury” (The J. David Gladstone Institutes, priority 2012, dated 2017).
Entries after “also recorded” stand apart in the source; their conditions may differ.

How the values were obtained:
[1] = tested on: wild-type mice; assay: Morris water maze after chronic intracerebroventricular infusion of fibrinogen; type: in vivo; conditions: ICV infusion 5 mg/ml, 14-day Alzet pump; tested 24 hours after last learning trial; vs ACSF
Procedure: Fibrinogen was delivered to the central nervous system (CNS) of wild-type mice by ICY. Briefly, fibrinogen (5 mg/ml) or artificial cerebrospinal fluid (ACSF), a control, was infused into the CNS of the mice using 14-day Alzet pumps through a cannula implanted in the right lateral ventricle. The concentration of the fibrinogen solution was selected based on its physiological range in the plasma. Five days after pump implantation, the mice were trained in the Morris water maze and tested after removal of the target platform 24 hours after the last learning trial. […] To control for visual discriminative ability, the same mice located a clearly visible black platform 2 h after the last trial.

[2] = tested on: wild-type mice; assay: Contextual fear conditioning test after stereotactic injection in the dentate gyrus; type: in vivo; conditions: single injection 5 μg in dentate gyrus; day 7 post-injection; vs ACSF
Procedure: To assess the effect of an increase in the local concentration of fibrinogen in a specific region of interest in the brain, mice received a single stereotactic injection of either 5 μg fibrinogen (1 μl of 5 mg/ml fibrinogen) or 1 μl control (ACSF) in the dentate gyrus. The effects on memory retrieval were assessed in the contextual fear conditioning test (Riley C et al., (2012) Expert review of neurotherapeutics 12(3):323-333.). Mice were placed in a novel environment and given a brief foot shock (training day; day 6 post injection). Memory was assessed by placing the mice in the same environment again one day after the training day (testing day, day 7 post-injection) and freezing (anxiety) behavior was recorded. Percentage of freezing is a direct measure of memory retrieval.

[3] = tested on: neurons in the dentate gyrus; assay: NeuN and IBA-1 antibody staining of hippocampus after injection in the dentate gyrus; type: in vivo, mice; conditions: 5 μg in dentate gyrus, day 7 post injection
[4] = tested on: dendritic spines; assay: Golgi staining of dendritic spines after stereotactic injection into the cortex; type: in vivo; conditions: 3 days later, compared to ACSF controls
Description: Fibrinogen injection in the cortex reduces dendritic spine density. Dendritic spines are the major site of excitatory synaptic inputs in the brain (Nimchinsky E A, et al., Annu Rev Physiol. 64:313-353). Novel spine formation and pre-existing spine elimination reflect the structural consequences of dynamic changes in neuronal activity at the cellular level (Grutzendler J & Gan W B (2006) NeuroRx 3(4):489-496; Trachtenberg J T et al., (2002) Nature 420(6917):788-794; Grutzendler J et al. (2002) Nature 420(6917):812-816.). Thus, dynamic changes in spine numbers and morphology are considered the cellular mechanisms underlying memory and learning (Holtmaat A et al. (2006) Nature 441 (7096):979-983). To assess the effect of a local concentration of fibrinogen on spine morphology, we injected fibrinogen by stereotactic injection into the cortex, and the brains were examined 3 days later by Golgi staining. Fibrinogen reduced the density of dendritic spines by 33%, compared to ACSF controls (FIG. 4).

[5] = tested on: corpus callosum; assay: Demyelination and microglial activation after stereotactic injection into the corpus callosum; type: in vivo, mice
Description: Fibrinogen was stereotactically injected at physiological concentrations into the corpus callosum.
The experiment described in Example 4 was repeated using different mouse strains to investigate the possibility that the neuronal damage induced by fibrinogen was limited to mice with particular genetic backgrounds. […] This is particularly significant as in the traditional model for multiple sclerosis, experimental allergic encephalomyelitis (EAE), different strains of mice show varying degrees of susceptibility to EAE. EAE is a T cell-mediated autoimmune disease that can be induced in experimental animals by immunization with myelin antigens. The susceptibility to myelin antigens ranges from highly susceptible SJL/J mice to resistant B10.S mice.

[6] = tested on: spinal cord; assay: Demyelination and microglia activation after stereotactic injection into the spinal cord; type: in vivo, wild-type mice; conditions: single injection at physiological concentrations; after 7 days
Description: Either ACSF or fibrinogen was stereotactically injected at physiological concentrations into the spinal cord of wild-type mice (each Group n=3-4). […] The % area for IBA-1 staining indicates a percentage of the mean area of CD3 or IBA-1 immunoreactivity in the predefined area on spinal cord sections.

[7] = tested on: microglia; assay: Acute microglial responses in vivo after injection into the cortex with a glass microelectrode; set-up: species or system Cx3cr1GFPI+ mice
Procedure: To directly address whether fibrinogen alone was sufficient to trigger acute microglial responses in the CNS, fibrinogen was injected into the cortex of Cx3cr1GFPI+ mice using a glass microelectrode. Control electrodes were also used containing ACSF or albumin (5 mg/ml). Injection of […] of a 3-6 mg/ml fibrinogen solution, which approximates the physiological concentration of fibrinogen in plasma, caused rapid extension of microglial processes toward the tip of the electrode within […] of the injection. The size of the fibrin deposit remains unaltered, and the microglial response to fibrin persists for at least 6 hours.
The levels of microglia were quantified in vivo usingantibodies against IBA-1 (Ahmed Z, supra).

[8] = tested on: microglia; assay: Microglial activation 3 days after stereotactic injections of fibrinogen or plasma; type: in vivo, mice; conditions: 3 days after stereotactic injection; fibrinogen 6-10 mg/ml
Procedure: FIG. 8 is a bar graph illustrating the quantification of microglial immunoreactivity from mouse brain sections 3 days after stereotactic injections of fibrinogen, ACSF or albumin protein control, or plasma isolated from wt, Fib-l-, Fib_390-396A mice (n=6 mice per condition). The bar graph represents the mean (*P<0.05, **P<0.01, one-way ANOVA).
Higher concentrations of fibrinogen were introduced (6-10 mg/ml), as well as ACSF, albumin, or plasma isolated from wt, Fib-l-, Fib_390-396A mice (n=6 mice per condition).

## fibrinogen
[1]
  memory recall (crossings of the target platform, time spent in the target quadrant): impaired memory recall
[2]
  percentage of freezing (memory retrieval): significant decrease; also recorded: impaired memory retrieval
[3]; hippocampal tissue
  microglial activation (IBA-1 antibody staining): increased microglial activation; also recorded: increase in IBA-1 staining
[3]; hippocampus
  NeuN immunoreactivity (neuronal loss): dramatic decrease; also recorded: reduction in NeuN staining
[4]
  reduction of density of dendritic spines: 33%
[5]; C57BL/6 mice (B6)
  demyelination in the corpus callosum: significant demyelination
  microglial activation in the corpus callosum: microglial activation
[5]; SJL/J mice (SJL)
  demyelination in the corpus callosum: significant demyelination
  microglial activation in the corpus callosum: microglial activation
[5]; corpus callosum injection
  time to induction of microglial activation: ≤ 1 days
[5]; single injection at physiological concentrations, after 7 days
  demyelination in the corpus callosum: induced demyelination
[6]
  demyelination in the spinal cord: spontaneously induced demyelination
  microglia activation in the spinal cord (IBA-1 staining): microglia activation
[7]; 3-6 mg/ml, compared to ACSF or albumin
  microglial responses (quantification): robust and statistically significant increase
[7]; 5-10 μl of 3-6 mg/ml solution into cortex
  persistence of microglial response to fibrin: at least 6 hours
[8]
  microglial activation 3 days after injection: formed a deposit that is surrounded by microglial processes
